Entries after “also recorded” stand apart in the source; their conditions may differ.

In assay [1] the test system is multipotent mesenchymal cells such as M2-10B4 (M2) marrow stromal cells and C3H10T1/2 embryonic fibroblasts. As to conditions: Kha et al. J Bone Miner Res 19:830-840, 2004; cited from earlier work.
For a further assay, the system named is Mesenchymal stem cells. The settings on record: general statement, no experiment described; cited from earlier work.
Assay [2] concerns rat spines (posterolateral space, L3-L5). The experiment in a line: posterolateral spinal fusion in rat two-level spine model. The assay is classed as in vivo. As to conditions: for bone growth on radiographs: 4-week and 8-week timepoints; for fusion by manual palpation of the spine segments (in words): 8 weeks; for fusion observed in rat spines (manual palpation): matrix of Oxy133, collagen and ceramic wetted with sterile water, two implants bilaterally, 8-week sacrifice, 5/5 spines. As to the method:
FIG. 6 illustrates uses of a formulation of malleable implants having 20 mg of Oxy133 on each side of the implant, in accordance with the malleable implants described herein. […] A dry composition of a matrix containing Oxy133, collagen and ceramic as described herein was prepared and wetted with sterile water to be implanted in rat spines as shown in FIG. 6. The wetted matrix was cut in half with a razor blade to yield two halves. The two implants were molded into cylindrical shapes prior to insertion and were positioned bilaterally in the posterolateral space of each test subject. Each implant contained 20 mg Oxy133. Radiographs were taken roughly 10 minutes after the procedure, 4 weeks after the procedure, and 8 weeks after the procedure. […] Fusion was tested at 8-week sacrifice by manual palpation. […] A dry composition of a matrix containing Oxy133, collagen and ceramic as described herein was prepared and wetted with sterile water to be implanted in rat spines as shown in FIG. 6. The wetted matrix was cut in half with a razor blade to yield two halves. The two implants were molded into cylindrical shapes prior to insertion and were positioned bilaterally in the posterolateral space of each test subject. Each implant contained 125 mg Oxy133. Radiographs were taken roughly 10 minutes after the procedure, 4 weeks after the procedure, and 8 weeks after the procedure. […] Fusion was tested at 8-week sacrifice by manual palpation.

As to `CC(C)CCC[C@](C)(O)[C@H]1CC[C@H]2[C@@H]3CC=C4C[C@@H](O)CC[C@]4(C)[C@H]3CC[C@@]21C` [20(S)-hydroxycholesterol], the osteogenic differentiation result in assay [1] is listed as “induce osteogenic differentiation”.
On to `CC(C)CC[C@@H](O)[C@@H](C)[C@H]1CC[C@H]2[C@@H]3CC=C4C[C@@H](O)CC[C@]4(C)[C@H]3CC[C@]12C` [22(R)-hydroxycholesterol], for which the osteogenic differentiation entry in assay [1] is reported as “induce osteogenic differentiation”.
Turning to `CC(C)CC[C@H](O)[C@@H](C)[C@H]1CC[C@H]2[C@@H]3CC=C4C[C@@H](O)CC[C@]4(C)[C@H]3CC[C@]12C` [22(S)-hydroxycholesterol], the osteogenic differentiation entry in assay [1] is listed as “induce osteogenic differentiation”.
Regarding `CCCCCC[C@](C)(O)[C@H]1CC[C@H]2[C@@H]3C[C@H](O)[C@H]4C[C@@H](O)CC[C@]4(C)[C@H]3CC[C@@]21C` [Oxy133, (3S,5S,6S,8R,9S,10R,13S,14S,17S)-17-((S)-2-hydroxyoctan-2-yl)-10,13-dimethylhexadecahydro-1H-cyclopenta[α]phenanthrene-3,6-diol], the osteoblast differentiation result in the assay with Mesenchymal stem cells is recorded as “increased osteoblast differentiation”. For the same molecule, the “bone growth on radiographs” value in assay [2] (implants with 20 mg Oxy133 each) and in assay [2] (implants with 125 mg Oxy133 each) was “promoted bridging bone across the transverse processes of L3-L5; also recorded: Bone growth in rat test subjects can be seen” in each case. Further, the “fusion by manual palpation of the spine segments (in words)” value in assay [2] (implants with 20 mg Oxy133 on each side) and in assay [2] (implants with 125 mg Oxy133 on each side) was “fusion was confirmed” each time. The “fusion observed in rat spines (manual palpation)” value in assay [2] (each 20 mg Oxy133) and in assay [2] (each 125 mg Oxy133) was 100% each time.

The values above are taken from patent US9877836B2, “Compression resistant implants including an oxysterol and methods of use” (Warsaw Orthopedic, Inc., priority 2015, dated 2018).
